Patent US12414907B2, “Peptide having hair growth promoting activity and use thereof” (CAREGEN CO., LTD., priority 2019, dated 2025)

Columns and labels:
AKT = experiment: Western blotting of phosphorylated AKT in dermal papilla cells; format: cell-based, human; details: peptide 0.5 uM, 5 uM or 50 uM, serum-free medium, 30 minutes; FIG. 2
Method: (§1) The effect of the peptide consisting of the amino acid sequence of SEQ ID NO: 1 on the activation of proliferation-related factors in hair follicle cells was to be confirmed. In detail, human dermal papilla cells were seeded in a 6-well plate at a density of 4×10^5 cells/well, and cultured for 16 hours. The culture medium was replaced with a serum-free medium, and the peptide was added thereto at a concentration of 0.5 uM, 5 uM, or 50 uM, and the cells were cultured for 30 minutes. Here, as a positive control group, 5 uM of Minoxidil was treated. Cell lysates were prepared by harvesting the cell, and then, western blotting was performed with respect to phosphorylated ERK and phosphorylated AKT by using p-ERK antibodies and p-AKT antibodies (Santacruz biotechnology, USA).

ERK = experiment: Western blotting of phosphorylated ERK in dermal papilla cells; format: cell-based, human; details: peptide 0.5 uM, 5 uM or 50 uM, serum-free medium, 30 minutes; FIG. 2
Method: as §1

β-catenin = experiment: Western blotting of nuclear β-catenin in dermal papilla cells; format: cell-based, human; details: peptide 0.5 uM, 5 uM or 50 uM, serum-free medium, 24 hours, nuclear proteins; FIG. 3
Method: The effect of the peptide consisting of the amino acid sequence of SEQ ID NO: 1 on the activation of a proliferation mechanism of hair follicle cells was to be confirmed. In detail, human dermal papilla cells were seeded in a 6-well plate at a density of 4×10^5 cells/well, and cultured for 16 hours. The culture medium was replaced with a serum-free medium, and the peptide was added thereto at a concentration of 0.5 uM, 5 uM, or 50 uM, and the cells were cultured for 24 hours. Here, as a positive control group, 5 uM of Minoxidil was treated. The cells were harvested and nuclear proteins thereof were isolated by using a nuclear protein extraction kit (Merck, USA). Then, western blotting was performed with respect to β-catenin which is a factor related to proliferation of the dermal papilla cells by using β-catenin antibodies (Santacruz biotechnology, USA).

TGFβ-1 = experiment: PCR of TGFβ-1 expression in dermal papilla cells; format: cell-based, human; details: peptide 0.5 uM, 5 uM or 50 uM, serum-free medium, 24 hours, PCR with GAPDH; FIG. 5
Method: The inhibitory effect of the peptide consisting of the amino acid sequence of SEQ ID NO: 1 on the expression of TGFβ-1, which is a hair loss-related factor, in hair follicle cells was to be confirmed. In detail, human dermal papilla cells were seeded in a 6-well plate at a density of 4x10^5 cells/well, and cultured for 16 hours. The culture medium was replaced with a serum-free medium, and the peptide was added thereto at a concentration of 0.5 uM, 5 uM, or 50 uM, and the cells were cultured for 24 hours. Here, as a positive control group, 5 uM of Minoxidil was treated. After the cells were harvested, RNA was extracted therefrom and used for synthesis of cNDA by using a cDNA synthesis kit and PCR pre-mix. TGFβ-1, as an androgen-inducible factor in hair follicle cells, is known to be related to hair loss.

DKK-1 = experiment: Western blotting of DKK-1 expression in DHT-stimulated dermal papilla cells; format: cell-based, human; details: DHT 10 ug/ml as stimulator, peptide 0.5 uM, 5 uM or 50 uM, 24 hours; FIG. 4
Method: The inhibitory effect of the peptide consisting of the amino acid sequence of SEQ ID NO: 1 on the expression of DKK-1, which is a hair loss-related factor, in hair follicle cells was to be confirmed. In detail, human dermal papilla cells were seeded in a 6-well plate at a density of 4x10^5 cells/well, and cultured for 16 hours. After the culture medium was replaced with a serum-free medium, dihydrotestosterone (DHT) as a stimulator was added thereto at a concentration of 10 ug/ml while peptide was added thereto at a concentration of 0.5 uM, 5 uM, or 50 uM. Then, the cells were cultured for 24 hours. The cells were harvested and nuclear proteins thereof were isolated by using a nuclear protein extraction kit. Then, western blotting was performed by using DKK-1 antibodies (Santacruz biotechnology, USA). Here, DHT is known as a hair loss hormone that increases the expression of DKK-1, which is a hair loss-inducible factor, by activating an androgen receptor.

[1] = system: human hair follicle dermal papilla cells; experiment: Proliferation of human hair follicle dermal papilla cells (MTT method); format: cell-based; details: peptide 0.5 uM, 5 uM or 50 uM, serum-free medium, 72 hours; FIG. 1
Method: The promoting effect of the peptide consisting of the amino acid sequence of SEQ ID NO: 1 on the proliferation of hair follicle cells was to be confirmed. In detail, human hair follicle dermal papilla cells were seeded in a 96-well plate at a density of 5×10^3 cells/well, and cultured for 16 hours. The culture medium was replaced with a serum-free medium, and the peptide was added thereto at a concentration of 0.5 uM, 5 uM, or 50 uM, and the cells were cultured for 72 hours. Here, as a positive control group, 5 uM of Minoxidil which is used as a hair loss treatment was treated. Afterwards, an MTT method was performed to measure the cell proliferation. In detail, 4 ug/ml of 3-(4,5-dimethylthiazol-2-yl)-2,5-diphenyltetrazolium bromide (MTT) was treated, and 4 hours later, DMSO was treated thereon to dissolve formazan. Then, the absorbance at 560 nm was measured by using a spectrophotometer.

For WQNMRL [SEQ ID NO: 1], the “phosphorylation of AKT” value (AKT) was “induced”, the “phosphorylation of ERK” value (ERK) was “induced” and the “movement of β-catenin from the cytoplasm to the nucleus” value (β-catenin) was “increased”. For the same substance, the “expression of TGFβ-1” value (TGFβ-1) was “inhibit the expression of TGFβ-1”, the “expression of DKK-1” value (DKK-1) was “inhibit the expression of DKK-1” and the “proliferation of human dermal papilla cells (MTT, absorbance at 560 nm)” value [1] was “promoted the proliferation of human dermal papilla cells”.
